From PMC7725785, “TRIB3 promotes MYC-associated lymphoma development through suppression of UBE3B-mediated MYC degradation” (Nature Communications, 2020) come the findings set out here.

The test system of one data set is Raji cells. Description: Cell viability (CCK-8) of Raji cells with PCM4 and DOX. In kind it is cell-based, human. To be noted: result in words.
For data set [1], the system named is primary human DLBCL cells (T69). The data set is described as follows: Serial colony formation (P1, P2) in methylcellulose, primary human DLBCL cells (T69). It is filed as cell-based. To be noted: also Raji and Jurkat (Fig. 6o, Supplementary Fig. 7r, s), result in words. The text has this: Mouse and human lymphoma cells formed colonies upon serum culture (P1). Single colonies of lymphoma cells were dispersed in methylcellulose-based medium MethoCul^TM M3630 (StemCell, 03630) or MethoCult™SF H4536 (StemCell, 04536). A representative plate was then washed and cells were resuspended and replated. After an additional 14 days, colonies were counted (P2).

The subject of another data set is MYC ubiquitination. Description: MYC ubiquitination in PCON- and PCM4-treated Raji cells. The settings on record: lymphoma cells; result in words. In kind it is cell-based, human.
The subject of the next data set is MYC and MAX. Description: Duolink PLA of MYC and MAX colocalization in Raji cells. In kind it is cell-based, human. To be noted: PCM4-treated Raji cells, result in words. Here is the method: A total of 1 × 10^6 cells were seeded overnight in a six-well plate. The next day, cells were collected, fixed in 4% paraformaldehyde solution, permeabilized with 0.5% Triton-X100, blocked with Duolink® Blocking Solution, and probed with antibodies directed against MYC (R&D, NB600-302, 1:100), TRIB3 (Novus, H00057761-M03, 1:100), UBE3B (Invitrogen, PA5-59390, 1:100), and MAX (Cell Signaling Technology, #4739, 1:100). The cells were then treated with the Duolink In Situ Red Starter Mouse/Rabbit kit (Sigma Aldrich, DUO92101-1KT) according to the manufacturer’s instructions. Images were captured with an OLYMPUS confocal microscope.

In data set [2] the test system is murine Myc^Eμ lymphoma cells in NSG mice. Description: Limiting dilution transplantation of BCL cells into NSG mice (survival of secondary recipients). To be noted: NSG mice injected i.p. with lymphoma cells from PCM4 (2 mg/kg) group versus PCON group, 70 days; result in words. It is filed as in vivo, mouse. From the text:
(§1) To evaluate the survival rate of secondary recipients, these mice were monitored for 70 days. For the evaluation of IHC staining and protein expression, three mice of each group were killed at the end of treatment, and the thymuses, spleens and LNs were collected for pathology detection, Co-IP, and western blot assays.

Data set [3] has as its system TRIB3-MYC interaction and MYC expression. Description: TRIB3/MYC Co-IP and MYC immunoblot in spleens and LNs of treated Myc^Eμ mice. In kind it is in vivo, mouse. The settings on record: Myc^Eμ mice; result in words. Here is the method: as §1
Co-IP experiments were performed as described previously. Briefly, cells were collected and lysed for 30 min on ice. Soluble lysates were incubated with the indicated antibodies at 4 °C overnight, followed by incubation with Protein A/G Plus-Agarose (Santa Cruz Biotechnology, TX, USA) at 4 °C for 2 h. Soluble lysates were incubated with the indicated Anti-Myc magnetic beads (Bimake.com, B26302), Anti-Flag Affinity Gel (Bimake.com, B23102) or Anti-HA Affinity Gel (Bimake.com, B23302) at 4 °C overnight. Immunocomplexes were separated from the beads and then boiled for 10 min. The precipitated proteins were subjected to SDS-PAGE and blotted with specific antibodies. For immunoblotting assays, proteins were extracted from cells, spleens, or lymphoma tissues using RIPA buffer (Cell Signaling Technology, MA, USA). A BCA Protein Assay Kit was used to determine protein concentrations. Protein extracts were separated by SDS-PAGE, transferred onto PVDF membranes, and subjected to immunoblot analysis. […]
For orientation: In western blotting, separated proteins are transferred to a membrane and probed.

The next data set has as its system DLBCL^T64 PDX. The data set is described as follows: PDX model tumor growth and weight, DLBCL T64. In kind it is in vivo, human. The settings on record: result in words. Here is the method: (§2) Four 5-week-old male NSG mice were implanted subcutaneously with 200 μl of a 1:1 mixture of Matrigel® Basement Membrane Matrix High Concentration (Corning, 354230) and minced fresh tumor fragments resected from lymphoma patients. Approximately 3–4 weeks following implantation, the first-generation mice (G1) were killed, and tumor masses were isolated. The tumor cells were tested for human CD19 (BCL) or CD3 expression (T cell lymphoma), and the remaining tumor mass was cut into 3-mm^3 sections and passaged into 4–5 NSG mice as the second generation (G2). After stable passage of the third generation (G3), the tumor mass of the fourth generation (G4) was equally cut into 3-mm^3 pieces and then passaged subcutaneously into 30–50 NSG mice (100 μl of a 1:2 mixture of Matrigel and tumor tissue) for in vivo treatment (6–8 mice per group, dependent on the experimental drug treatment). During and after treatment with the vehicle control or the indicated agent, tumor burden was evaluated by measuring the tumor volume to determine the therapeutic efficacy in the PDX models. […]
(§3) To evaluate the survival rate, these mice were monitored for 8 months (Myc^Eμ mice). […] During the indicated treatments, tumor burden was evaluated by measuring the tumor volume to determine the therapeutic efficacy in the PDX models.

Another data set has as its system DLBCL^T69 PDX. The data set is described as follows: PDX model tumor growth and weight, DLBCL T69. It is filed as in vivo, human. The settings on record: result in words. The method, then:
as §2, §3

A further data set deals with FL^T174 PDX. Description: PDX model tumor growth and weight, FL T174. To be noted: result in words. In kind it is in vivo, human. The method, then: as §2, §3
Data set [4] in a line: Serum ALT, AST, UREA and CRE (liver and renal function) in treated Myc^Eμ mice. The settings on record: UREA, CRE, result in words.
Description: The serum alanine transaminase (ALT) and aspartate transaminase (AST) levels of MycEµ mice with the indicated
treatment were detected to evaluate liver function (n = 6 per group). Data are represented as means ± SEM. (b) Th e
serum UREA and creatinine (CRE) levels of MycEµ mice with the indicated treatment were detected to evaluate
renal function (n = 6 per group). Data are represented as means ± SEM.

With HLYVSPWGGKRREQLKHKLEQLR [PCM4], in the data set on Raji cells, the “effect on Raji cell proliferation in combination with doxorubicin (DOX)” value was “synergistically inhibited Raji cell proliferation”. Moreover, in data set [1], the “intrinsic clonogenicity of human lymphoma cells” value is “reduced the intrinsic clonogenicity”. In addition, in the data set with MYC ubiquitination, the “MYC ubiquitination and degradation” value is “rescued MYC ubiquitination and degradation”. The “foci of MAX-MYC colocalization” value in the data set with MYC and MAX is reported as “reduced foci of MAX-MYC colocalization”. The “survival rate of secondary recipients” value in data set [2] is listed as “better survival rate”. In addition, in data set [3], the “TRIB3-MYC interaction and MYC expression in the LNs and spleens” value is “decrease in the TRIB3-MYC interaction and MYC expression”. Besides, the “growth and weights of tumors, combination of PCM4 and DOX” value was “further decreased the growth and weights of tumors” with DLBCL^T64 PDX (PDX T64 (high TRIB3 and MYC expression), PCM4 5 mg/kg and DOX 2 mg/kg); “further decreased the growth and weights of tumors” in the data set with DLBCL^T69 PDX (PDX T69 (high TRIB3 and MYC expression), PCM4 5 mg/kg and DOX 2 mg/kg); “further decreased the growth and weights of tumors” in the data set with FL^T174 PDX (PDX T174 (high TRIB3 and MYC expression), PCM4 5 mg/kg and DOX 2 mg/kg). Also, the “tumor growth of PDX” value is on record as “inhibited the tumor growth” with DLBCL^T64 PDX (PDX T64, NSG mice, PCM4 5 mg/kg i.v. three times a week); “inhibited the tumor growth” in the data set on DLBCL^T69 PDX (PDX T69, NSG mice, PCM4 5 mg/kg i.v. three times a week); “inhibited the tumor growth” in the data set on FL^T174 PDX (PDX T174, NSG mice, PCM4 5 mg/kg i.v. three times a week). Further, in data set [4], the “toxic effects (renal/liver function assays)” value was “did not exert obvious toxic effects”.
